Laboratory results: ChEMBL document CHEMBL1201862, “PubChem BioAssay data set” (2004)
Calls of active or inactive are those of the source.

Key:
[1] = Fluorescence-based cell-based high throughput dose response assay for inhibitors of the interaction of nucleotide-binding oligomerization domain containing 2 (NOD2) and the receptor-interacting serine-threonine kinase 2 (RIPK2).; assay type: functional; settings: Homo sapiens
[2] = reduced cellular PGC1a acetyl-lysine signal – cell-based, cherry-picked samples, dose response (AID 720514); assay type: functional;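 note: potency may reflect raised or lowered acetylation signal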
Paired box protein Pax-8 = Paired box protein Pax-8 (Homo sapiens, UniProt Q06710); test: PAX8 transcriptional activity inhibition in RMG-I – RMG-I cells, luciferase, cherry-pick, dose response (AID 687027); assay type: functional, cell-based;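 note: luciferase reporter driven by Pax8 target thyroperoxidase promoter measured by SteadyGlo luminescence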
Sequence of Paired box protein Pax-8 (Q06710 whole entry): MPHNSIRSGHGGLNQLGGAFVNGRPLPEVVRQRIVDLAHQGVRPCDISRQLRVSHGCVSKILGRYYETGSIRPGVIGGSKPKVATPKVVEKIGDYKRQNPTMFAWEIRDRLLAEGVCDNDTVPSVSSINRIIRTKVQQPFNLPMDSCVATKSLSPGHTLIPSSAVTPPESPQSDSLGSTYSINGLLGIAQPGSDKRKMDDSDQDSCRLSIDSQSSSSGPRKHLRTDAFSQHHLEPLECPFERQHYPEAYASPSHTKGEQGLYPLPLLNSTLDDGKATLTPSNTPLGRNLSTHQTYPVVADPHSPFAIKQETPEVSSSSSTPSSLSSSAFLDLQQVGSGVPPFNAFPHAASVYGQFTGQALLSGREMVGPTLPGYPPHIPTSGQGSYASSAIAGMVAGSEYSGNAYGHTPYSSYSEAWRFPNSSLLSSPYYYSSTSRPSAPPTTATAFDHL

[3] = target: T1, Microphthalmia-associated transcription factor (Homo sapiens, UniProt O75030); test: reducers of TRPM1 reporter luminescence, concentration series – cell-based, SK-MEL-5, cherry-picked, set 3, MITF inhibitor project, dose response (AID 493073); assay type: functional;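 note: SK-MEL-5 melanoma cells with luciferase driven by the MITF target TRPM1 promoter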
T1 sequence (O75030 whole entry): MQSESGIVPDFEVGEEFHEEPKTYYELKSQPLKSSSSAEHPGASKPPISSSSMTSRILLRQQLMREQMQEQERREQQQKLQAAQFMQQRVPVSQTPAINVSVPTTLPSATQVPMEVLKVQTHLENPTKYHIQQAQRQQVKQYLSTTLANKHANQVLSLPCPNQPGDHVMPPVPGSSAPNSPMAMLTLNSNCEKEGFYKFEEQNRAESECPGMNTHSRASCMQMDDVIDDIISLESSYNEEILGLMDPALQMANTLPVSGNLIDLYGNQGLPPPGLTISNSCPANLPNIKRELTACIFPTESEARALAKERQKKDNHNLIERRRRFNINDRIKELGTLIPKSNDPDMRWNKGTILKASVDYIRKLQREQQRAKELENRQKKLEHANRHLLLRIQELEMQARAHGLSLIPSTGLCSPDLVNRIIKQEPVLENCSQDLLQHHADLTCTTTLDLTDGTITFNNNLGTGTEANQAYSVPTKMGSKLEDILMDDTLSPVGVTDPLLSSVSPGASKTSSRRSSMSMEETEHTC

Caspase-3 = target: T2, Caspase-3 (Homo sapiens, UniProt P42574); test: human caspase-3 protease activity blockade – biochemical, fluorescence, cherry-picked samples, selectivity assay for caspase-6 allosteric inhibitor project, dose response (AID 743291)
T2 sequence (P42574 whole entry): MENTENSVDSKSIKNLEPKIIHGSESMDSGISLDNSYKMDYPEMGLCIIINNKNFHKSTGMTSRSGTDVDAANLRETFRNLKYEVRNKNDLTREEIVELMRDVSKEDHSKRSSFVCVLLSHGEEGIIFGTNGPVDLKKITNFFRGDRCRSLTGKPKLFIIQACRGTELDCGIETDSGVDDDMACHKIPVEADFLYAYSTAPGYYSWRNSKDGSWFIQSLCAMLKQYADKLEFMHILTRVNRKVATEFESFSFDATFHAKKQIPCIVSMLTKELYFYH

Caspase-9 = target: T3, Caspase-9 (Homo sapiens, UniProt P55211); test: inhibitors of purified CASP9 protease – biochemical, fluorescence, plate reader, cherry-picked samples, selectivity assay for caspase-6 inhibitor project, dose response (AID 743293)
T3 sequence (P55211 whole entry): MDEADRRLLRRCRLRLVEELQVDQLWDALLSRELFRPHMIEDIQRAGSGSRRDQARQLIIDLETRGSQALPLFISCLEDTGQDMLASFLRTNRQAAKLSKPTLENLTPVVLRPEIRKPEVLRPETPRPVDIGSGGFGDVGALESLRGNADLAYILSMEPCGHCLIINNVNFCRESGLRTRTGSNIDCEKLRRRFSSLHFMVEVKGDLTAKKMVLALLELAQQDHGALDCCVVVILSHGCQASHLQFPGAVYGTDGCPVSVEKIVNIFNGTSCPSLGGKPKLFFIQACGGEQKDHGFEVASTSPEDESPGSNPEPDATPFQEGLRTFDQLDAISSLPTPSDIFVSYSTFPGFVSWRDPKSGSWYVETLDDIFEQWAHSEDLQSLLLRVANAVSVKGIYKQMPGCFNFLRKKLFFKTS

Caspase-8 = Caspase-8 (Homo sapiens, UniProt Q14790); test: inhibitors of purified CASP8 protease – biochemical, Z-IETD-R110 fluorescence, cherry-picked samples, selectivity assay for caspase-6 inhibitor project, dose response (AID 743294)
Sequence of Caspase-8 (Q14790 217-374 limits assumed): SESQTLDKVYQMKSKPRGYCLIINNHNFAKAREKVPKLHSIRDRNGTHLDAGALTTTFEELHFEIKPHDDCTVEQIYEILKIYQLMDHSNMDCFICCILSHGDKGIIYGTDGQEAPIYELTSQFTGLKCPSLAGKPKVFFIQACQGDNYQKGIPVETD
Sequence of Caspase-8 (Q14790 385-479 limits assumed): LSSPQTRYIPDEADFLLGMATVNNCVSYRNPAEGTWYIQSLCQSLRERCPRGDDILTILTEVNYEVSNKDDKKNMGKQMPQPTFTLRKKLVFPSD

Caspase-6 = target: T4, Caspase-6 (Homo sapiens, UniProt P55212); test: inhibition of CASP6 peptide cleavage – biochemical, VEID-R110 fluorescence, cherry-pick, dose response (AID 720632)
T4 sequence (P55212 whole entry): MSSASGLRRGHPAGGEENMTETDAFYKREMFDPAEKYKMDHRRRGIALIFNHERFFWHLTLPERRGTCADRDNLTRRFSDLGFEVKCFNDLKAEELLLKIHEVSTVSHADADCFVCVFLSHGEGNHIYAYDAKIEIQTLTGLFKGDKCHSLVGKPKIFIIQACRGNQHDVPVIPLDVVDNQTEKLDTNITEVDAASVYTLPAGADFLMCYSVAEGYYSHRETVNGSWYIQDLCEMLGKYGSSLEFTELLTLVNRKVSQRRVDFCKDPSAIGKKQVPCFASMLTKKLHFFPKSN

[4] = target: T5, Sentrin-specific protease 8 (Homo sapiens, UniProt Q96LD8); assay type: functional
T5 sequence (Q96LD8 whole entry): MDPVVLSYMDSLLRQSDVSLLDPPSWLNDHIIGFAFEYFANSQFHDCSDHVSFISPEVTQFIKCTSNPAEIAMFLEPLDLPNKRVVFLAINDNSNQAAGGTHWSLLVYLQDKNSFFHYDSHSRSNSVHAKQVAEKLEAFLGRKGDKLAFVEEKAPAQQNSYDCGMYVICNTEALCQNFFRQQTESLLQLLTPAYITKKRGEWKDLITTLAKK

Caspase-7 = Caspase-7 (Homo sapiens, UniProt P55210); test: caspase-7 enzyme inhibition, selectivity check – biochemical, DEVD-R110 fluorescence, cherry-pick, selectivity assay for caspase-6 inhibitor project, dose response (AID 743295); assay type: functional
Sequence of Caspase-7 (P55210 24-198 limits assumed): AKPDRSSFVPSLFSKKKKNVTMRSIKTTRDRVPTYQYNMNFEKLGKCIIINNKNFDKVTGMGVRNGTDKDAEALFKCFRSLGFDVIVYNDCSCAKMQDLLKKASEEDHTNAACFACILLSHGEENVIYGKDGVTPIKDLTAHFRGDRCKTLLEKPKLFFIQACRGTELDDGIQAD
Sequence of Caspase-7 (P55210 207-303 limits assumed): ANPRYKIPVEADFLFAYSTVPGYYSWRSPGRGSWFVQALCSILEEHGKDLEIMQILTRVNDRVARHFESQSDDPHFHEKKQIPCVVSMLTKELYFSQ

[5] = target: T6, Histone-lysine N-methyltransferase NSD2 (Homo sapiens, UniProt O96028); assay type: biochemical
T6 sequence (O96028 whole entry): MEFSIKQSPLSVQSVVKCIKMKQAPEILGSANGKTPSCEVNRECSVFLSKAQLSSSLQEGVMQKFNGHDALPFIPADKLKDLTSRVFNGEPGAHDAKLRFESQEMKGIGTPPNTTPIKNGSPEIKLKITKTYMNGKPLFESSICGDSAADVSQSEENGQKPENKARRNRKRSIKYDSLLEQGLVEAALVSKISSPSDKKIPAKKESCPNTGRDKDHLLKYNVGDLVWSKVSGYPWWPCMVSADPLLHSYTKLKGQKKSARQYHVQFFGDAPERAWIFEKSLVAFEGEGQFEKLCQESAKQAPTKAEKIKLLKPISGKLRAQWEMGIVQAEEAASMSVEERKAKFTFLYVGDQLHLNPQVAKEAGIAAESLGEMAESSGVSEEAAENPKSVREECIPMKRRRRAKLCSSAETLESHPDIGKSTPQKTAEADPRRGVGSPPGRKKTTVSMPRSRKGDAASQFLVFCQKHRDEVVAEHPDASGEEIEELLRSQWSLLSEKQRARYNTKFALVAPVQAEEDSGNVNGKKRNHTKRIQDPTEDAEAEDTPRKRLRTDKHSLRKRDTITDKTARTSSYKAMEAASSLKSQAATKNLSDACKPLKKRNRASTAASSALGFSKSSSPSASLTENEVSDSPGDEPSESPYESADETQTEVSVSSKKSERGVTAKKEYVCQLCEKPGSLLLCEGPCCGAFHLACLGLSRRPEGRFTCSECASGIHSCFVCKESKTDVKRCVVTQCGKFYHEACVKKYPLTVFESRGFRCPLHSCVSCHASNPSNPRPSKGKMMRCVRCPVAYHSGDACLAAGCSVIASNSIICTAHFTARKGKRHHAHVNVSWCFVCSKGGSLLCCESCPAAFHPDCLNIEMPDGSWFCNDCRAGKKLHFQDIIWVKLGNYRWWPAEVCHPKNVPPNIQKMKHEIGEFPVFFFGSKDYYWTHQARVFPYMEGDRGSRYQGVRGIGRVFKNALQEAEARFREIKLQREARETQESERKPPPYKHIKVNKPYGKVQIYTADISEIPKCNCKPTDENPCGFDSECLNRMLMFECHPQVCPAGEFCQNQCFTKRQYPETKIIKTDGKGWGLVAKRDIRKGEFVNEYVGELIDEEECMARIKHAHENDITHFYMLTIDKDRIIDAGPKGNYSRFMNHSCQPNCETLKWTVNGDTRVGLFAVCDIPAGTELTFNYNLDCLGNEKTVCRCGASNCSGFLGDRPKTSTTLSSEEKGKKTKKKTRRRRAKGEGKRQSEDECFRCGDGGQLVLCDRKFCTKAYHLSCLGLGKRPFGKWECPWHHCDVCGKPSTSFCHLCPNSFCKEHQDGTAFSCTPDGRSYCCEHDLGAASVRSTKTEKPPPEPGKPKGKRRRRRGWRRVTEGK

[6] = target: T5, Sentrin-specific protease 8; assay type: functional; remark: listed apart in the source
[7] = OVCAR-3 cell viability loss – plate reader, dry powder samples, PAX8 inhibitor project, dose response (AID 743044); assay type: functional, cell-based
[8] = A2780 cell killing – plate reader, dry powder samples, cytotoxicity control, dose response (AID 743046); assay type: functional, cell-based
[9] = microbe, parasite or virus in culture; assay type: functional; settings: Mycobacterium tuberculosis
[10] = toxicity toward HepG2 liver cells – cell-based, plate reader, cherry-pick, antagonist series, cytotoxicity control, dose response (AID 743416); assay type: functional
[11] = viability loss in HEK293 cells – cell-based, plate reader, cherry-picked samples, cytotoxicity control, dose response (AID 743446); assay type: functional
[12] = blockers of bursicon-stimulated LGR2 cAMP reporter – cell-based, HEK293, CRE-luciferase reporter, cherry pick, set 2, dose response (AID 743343); assay type: functional;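 note: transfected cells were stimulated with diluted bursicon conditioned medium after compound addition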
[13] = blockade of melanocortin 4 receptor signaling – cell-based, plate reader, cherry pick, counter-screen for LGR2 antagonist project, dose response (AID 743444); assay type: functional;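 note: transfected HEK 293 cells stimulated with alpha-MSH peptide; potency of inhibitors of the alpha-MSH evoked signal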
INS1 = test: INS-1E survival protection against cytokine death – cell-based, luminescence, retest, dose response (AID 449756); assay type: functional; settings: Rattus norvegicus;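 note: cell death triggered by IL-1 beta plus TNF-alpha plus IFN-gamma mixture; protective hits raise ATP signal compared with cytokine alone wells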
[14] = Luminescence Cell-Based Dose Retest to Confirm Inhibitors of Cancer Stem Cells. [Related pubchem assays (depositor defined):AID2717, AID2721]; assay type: functional; settings: Homo sapiens
[15] = A549 cell cytotoxicity, dose response, cytotoxicity control, plate reader, cherry-pick, antagonist series (AID 743412); assay type: functional, cell-based

Cc1ccc(NC(=O)Cn2ncc(Cl)c(Cl)c2=O)cc1S(=O)(=O)N1CCCCC1
active: IC50 [1] 2.88 µM | AC50 [2] 7.27 µM | AC50 (Paired box protein Pax-8) 4.58 µM | AC50 [3] 13.7 µM

COc1cc(N(C(C)=O)c2ccc(O)c(C(=O)O)c2)c2ncccc2c1
active: AC50 (Caspase-3) 13.8 µM | AC50 (Caspase-9) 45.4 µM | AC50 (Caspase-8) 49.5 µM | AC50 (Caspase-6) 3.48 µM | IC50 [4] 7.7 µM | AC50 (Caspase-7) 20.1 µM | AC50 [5] 6.27 µM | IC50 [6] 9.87 µM

C[C@@H]1CN([C@H](C)CO)C(=O)c2cc(NS(=O)(=O)c3ccc(Cl)cc3)ccc2O[C@@H](C)CCCCO[C@@H]1CN(C)Cc1ccc(Cl)c(Cl)c1
active: AC50 [7] 49.5 µM | AC50 (Paired box protein Pax-8) 11.7 µM | AC50 [8] 2.73 µM

Cn1nnnc1Sc1ncnc2scc(-c3cc4ccccc4o3)c12
active: CC50 [9] 7.67 µM | AC50 [10] 7.37 µM | AC50 [11] 7.82 µM | AC50 [12] 4.7 µM | AC50 [2] 4.29 µM | AC50 (Paired box protein Pax-8) 3.12 µM | AC50 [13] 4.18 µM | AC50 (INS1) 6 µM | AC50 [14] 1.41 µM | AC50 [15] 8.38 µM
